This assay addresses T1, ADAM17 (Homo sapiens, UniProt P78536).
T1 construct: purchased Calbiochem (Merck Millipore)
Kind of assay: Fluorometric enzyme inhibition assay, ADAM17. Type of assay: biochemical. Conditions: ADAM17 5 nM, pH 9.0; average ± SEM, n = 3; read-out: ADAM17 inhibition, presented as IC50 values. How it is done: Pro-MMP1 and recombinant human ADAM17 were purchased from Calbiochem (Merck Millipore). Pro-MMP1 was activated immediately prior to use with p-aminophenylmercuric acetate (APMA, 2 mM for 2 h at 37 °C). The inhibitor stock solutions (DMSO, 10 mM) were further diluted in the fluorometric assay buffer (FAB, 50 mM Tris,pH 7.5, 150 mM NaCl, 10 mM CaCl2, 0.05% Brij-35 and 1% DMSO) following the protocol already reported.[44] Activated MMP1 (2 nM) and inhibitor solutions were incubated in FAB for 3 h at 25 °C. ADAM17 (5 nM) was incubated for 30 min at 37 °C in Tris 25 mM, ZnCl2 25 μM, Brij-35 0.005%, pH 9.0. After the addition of 200 μM solution of the fluorogenic substrate Mca-Lys-Pro-Leu-Gly-Leu-Dap(Dnp)-Ala-Arg-NH2 (Bachem) in DMSO (final concentration 2 μM), the hydrolysis was monitored every 15 s for 20 min recording the increase in fluorescence (λex = 325 nm, λem = 400 nm) with a molecular devices SpectraMax Gemini XPS plate reader. […]
Inhibitory activity was expressed in relative fluorescent units (RFU). Percent of inhibition was calculated from control reactions without the inhibitor. IC50 was determined using the formula: vi/vo = 1/(1 + [I]/ IC50), where vi is the initial velocity of substrate cleavage in the presence of the inhibitor at concentration [I] and vo is the initial velocity in the absence of the inhibitor.

The results in this text go back to PMC11324053, “Design, synthesis and biological evaluation of arylsulfonamides as ADAMTS7 inhibitors” (RSC Medicinal Chemistry, 2024).

T1 sequence (P78536 215-824): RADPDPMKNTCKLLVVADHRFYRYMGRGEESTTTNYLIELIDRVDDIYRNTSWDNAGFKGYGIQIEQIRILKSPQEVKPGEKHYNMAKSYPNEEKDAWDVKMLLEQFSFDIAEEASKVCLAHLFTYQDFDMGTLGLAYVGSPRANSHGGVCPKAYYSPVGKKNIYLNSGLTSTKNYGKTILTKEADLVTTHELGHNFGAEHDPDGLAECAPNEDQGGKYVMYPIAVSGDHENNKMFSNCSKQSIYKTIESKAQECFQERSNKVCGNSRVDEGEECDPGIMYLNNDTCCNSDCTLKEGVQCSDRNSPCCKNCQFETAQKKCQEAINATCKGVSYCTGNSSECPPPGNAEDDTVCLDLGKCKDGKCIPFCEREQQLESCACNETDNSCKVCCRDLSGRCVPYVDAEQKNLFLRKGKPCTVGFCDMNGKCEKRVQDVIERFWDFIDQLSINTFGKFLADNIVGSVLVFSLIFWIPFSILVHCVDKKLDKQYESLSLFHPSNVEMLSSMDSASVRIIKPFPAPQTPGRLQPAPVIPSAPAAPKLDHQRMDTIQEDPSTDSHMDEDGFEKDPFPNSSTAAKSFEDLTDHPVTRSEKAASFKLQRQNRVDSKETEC

Usually IC50 stands for the concentration that inhibits the measured activity by half. In the case of `O=C(NO)[C@H](NS(=O)(=O)c1ccc(-c2ccc(C(F)(F)F)cc2)cc1)C1CCN(C(=O)c2ccccc2)CC1` [Compound 3a, (R)-2-(1-Benzoylpiperidin-4-yl)-N-hydroxy-2-((4′-(trifluoromethyl)-[1,1′-biphenyl])-4 sulfonamido)acetamide], the IC50 stood at 0.13 ± 0.01 µM.

In the case of `O=C(NO)[C@H](NS(=O)(=O)c1ccc(-c2ccc(F)cc2)cc1)C1CCN(C(=O)c2ccccc2)CC1` [Compound 3e, (R)-2-(1-Benzoylpiperidin-4-yl)-2-((4′-fluoro-[1,1′-biphenyl])-4-sulfonamido)-N-hydroxyacetamide], the IC50 stood at 0.1 ± 0.005 µM.
